For 27 compounds, viability and melting point results are on record in patent US9174996B2, “Protein kinase inhibitors” (Astar Biotech LLC, priority 2012, dated 2015).

Each structure is given as a SMILES string.

For one data set, the system named is K562 cells. As to the kind of experiment: Cell death assay, Experiment 1 (live cells counted by trypan blue). Format: cell-based. The settings on record: Homo sapiens, 100 nM, 48 hours, read-out: % live cells (vs control).

`Cc1ccc(C(=O)Nc2ccc(CN3CCN(C)CC3)c(C(F)(F)F)c2)cc1C#Cc1cnc2cccnn12` [AP-24534, reference compound]: the viability at 0.1 µM in the data set with K562 cells was 10.1%.
`CN1CCN(Cc2ccc3nc(-c4ccc(Cl)c(C#Cc5cnc(NC6CC6)nc5)c4)[nH]c3c2)CC1` [Compound 10, 5-(2-(2-Chloro-5-(6-((4-methylpiperazin-1-yl)methyl)-1H-benzo[d]imidazol-2-yl)phenyl)ethynyl)-N-cyclopropylpyrimidin-2-amine] came in with a melting point of 160 to 162 °C. Moreover, the viability at 0.1 µM in the data set with K562 cells came to 11%.
Compound `Cc1cn(-c2cc(NC(=O)c3ccc(Cl)c(C#Cc4cnc(NC5CC5)nc4)c3)cc(C(F)(F)F)c2)cn1` [Compound 33, 4-Chloro-3-(2-(2-(cyclopropylamino)pyrimidin-5-yl)ethynyl)-N-(3-(4-methyl-1H-imidazol-1-yl)-5-(trifluoromethyl)phenyl)benzamide] returned a melting point of 163 to 165 °C. The viability at 0.1 µM in the data set on K562 cells turned out to be 7.97%.
In turn, `Cc1cn(-c2ccc(NC(=O)c3ccc(C)c(C#Cc4ccc(NC(C)C)nn4)c3)cc2C(F)(F)F)cn1` [Compound 19, 3-(2-(6-(Isopropylamino)pyridazin-3-yl)ethynyl)-4-methyl-N-(4-(4-methyl-1H-imidazol-1-yl)-3-(trifluoromethyl)phenyl)benzamide] yielded a melting point of 141 to 143 °C.
In the case of `Cc1cn(-c2ccc(NC(=O)c3ccc(Cl)c(C#Cc4cnc(NC5CC5)nc4)c3)cc2C(F)(F)F)cn1` [Compound 29, 4-Chloro-3-(2-(2-(cyclopropylamino)pyrimidin-5-yl)ethynyl)-N-(4-(4-methyl-1H-imidazol-1-yl)-3-(trifluoromethyl)phenyl)benzamide], the melting point is 141 to 143 °C. In the data set with K562 cells, the viability at 0.1 µM worked out at 5.87%.
The corresponding values for `CN1CCN(Cc2ccc(NC(=O)c3ccc(Cl)c(C#Cc4ccc(NC5CCC5)nn4)c3)cc2C(F)(F)F)CC1` [Compound 16, 4-Chloro-3-(2-(6-(cyclobutylamino)pyridazin-3-yl)ethynyl)-N-(4-((4-methylpiperazin-1-yl)methyl)-3-(trifluoromethyl)phenyl)benzamide] are 132 to 133 °C and 8.46%.
In turn, `Cc1cn(-c2ccc(NC(=O)c3ccc(C)c(C#Cc4ccc(NC5CC5)nn4)c3)cc2C(F)(F)F)cn1` [Compound 18, 3-(2-(6-(Cyclopropylamino)pyridazin-3-yl)ethynyl)-4-methyl-N-(4-(4-methyl-1H-imidazol-1-yl)-3-(trifluoromethyl)phenyl)benzamide] gave a melting point of 125 to 126 °C.
`CN1CCN(Cc2ccc(NC(=O)N3CCC(C#Cc4cnc5cccnn45)C3)cc2C(F)(F)F)CC1` (stereo not drawn) [Compound 35, 3-(2-(Imidazo[1,2-b]pyridazin-3-yl)ethynyl)pyrrolidine-N-(4-((4-methylpiperazin-1-yl)methyl)-3-(trifluoromethyl)phenyl)-1-carboxamide] showed a melting point of 83 to 85 °C. Further, the viability at 0.1 µM in the data set with K562 cells came out at 11.3%.
The corresponding values for `Cc1cn(-c2ccc(NC(=O)c3ccc(C)c(C#Cc4cnc(NC5CC5)nc4)c3)cc2C(F)(F)F)cn1` [Compound 28, 3-(2-(2-(Cyclopropylamino)pyrimidin-5-yl)ethynyl)-4-methyl-N-(4-(4-methyl-1H-imidazol-1-yl)-3-(trifluoromethyl)phenyl)benzamide] are 131 to 133 °C and 12.7%.
`Cc1ccc(-c2nc3ccc(CN4CCN(C)CC4)cc3[nH]2)cc1C#Cc1ccc(NC2CCC2)nn1` [Compound 1, N-Cyclobutyl-6-(2-(2-methyl-5-(6-((4-methylpiperazin-1-yl)methyl)-1H-benzo[d]imidazol-2-yl)phenyl)ethynyl)pyridazin-3-amine] returned a melting point of 148 to 150 °C.
The same measure, in the same setting: with `CC(C)Nc1ccc(C#Cc2cc(-c3nc4ccc(CN5CCN(C)CC5)cc4[nH]3)ccc2Cl)nn1` [Compound 9, 6-(2-(2-Chloro-5-(6-((4-methylpiperazin-1-yl)methyl)-1H-benzo[d]imidazol-2-yl)phenyl)ethynyl)-N-isopropylpyridazin-3-amine] the figure was 127 to 128 °C; with `Cc1cn(-c2cc(NC(=O)c3ccc(Cl)c(C#Cc4ccc(NC5CCC5)nn4)c3)cc(C(F)(F)F)c2)cn1` [Compound 27, 4-Chloro-3-(2-(6-(cyclobutylamino)pyridazin-3-yl)ethynyl)-N-(3-(4-methyl-1H-imidazol-1-yl)-5-(trifluoromethyl)phenyl)benzamide], 225 to 227 °C.
On to `Cc1cn(-c2ccc3nc(-c4ccc(C)c(C#Cc5cnc6cccnn56)c4)[nH]c3c2)cn1` [Compound 11, 3-(2-(2-Methyl-5-(6-(4-methyl-1H-imidazol-1-yl)-1H-benzo[d]imidazol-2-yl)phenyl)ethynyl)imidazo[1,2-b]pyridazine], for which the melting point was in the range of 182 to 184 °C.
On to `Cc1cn(-c2ccc(NC(=O)c3ccc(Cl)c(C#Cc4cnc5cccnn45)c3)cc2C(F)(F)F)cn1` [Compound 31, 4-Chloro-3-(2-(imidazo[1,2-b]pyridazin-3-yl)ethynyl)-N-(4-(4-methyl-1H-imidazol-1-yl)-3-(trifluoromethyl)phenyl)benzamide], for which the melting point was in the range of 153 to 155 °C. In addition, in the data set on K562 cells, the viability at 0.1 µM stood at 14.4%.
Turning to `Cc1cn(-c2ccc(NC(=O)c3ccc(Cl)c(C#Cc4ccc(NC5CC5)nn4)c3)cc2C(F)(F)F)cn1` [Compound 20, 4-Chloro-3-(2-(6-(cyclopropylamino)pyridazin-3-yl)ethynyl)-N-(4-(4-methyl-1H-imidazol-1-yl)-3-(trifluoromethyl)phenyl)benzamide], the melting point was in the range of 150 to 152 °C.
`Cc1cn(-c2cc(NC(=O)c3ccc(Cl)c(C#Cc4cnc5cccnn45)c3)cc(C(F)(F)F)c2)cn1` [Compound 32, 4-Chloro-3-(2-(imidazo[1,2-b]pyridazin-3-yl)ethynyl)-N-(3-(4-methyl-1H-imidazol-1-yl)-5-(trifluoromethyl)phenyl)benzamide] returned a melting point of 153 to 154 °C. The viability at 0.1 µM with K562 cells came to 9.57%.
`CN1CCN(Cc2ccc3nc(-c4ccc(Cl)c(C#Cc5ccc(NC6CC6)nn5)c4)[nH]c3c2)CC1` [Compound 7, 6-(2-(2-Chloro-5-(6-((4-methylpiperazin-1-yl)methyl)-1H-benzo[d]imidazol-2-yl)phenyl)ethynyl)-N-cyclopropylpyridazin-3-amine] showed a melting point of 130 to 131 °C.
Same read-out and setting: with `Cc1cn(-c2cc(NC(=O)c3ccc(C)c(C#Cc4ccc(NC(C)C)nn4)c3)cc(C(F)(F)F)c2)cn1` [Compound 25, 3-(2-(6-(Isopropylamino)pyridazin-3-yl)ethynyl)-4-methyl-N-(3-(4-methyl-1H-imidazol-1-yl)-5-(trifluoromethyl)phenyl)benzamide] the figure was 192 to 194 °C.
Turning to `Cc1cn(-c2cc(NC(=O)c3ccc(Cl)c(C#Cc4ccc(NC5CC5)nn4)c3)cc(C(F)(F)F)c2)cn1` [Compound 26, 4-Chloro-3-(2-(6-(cyclopropylamino)pyridazin-3-yl)ethynyl)-N-(3-(4-methyl-1H-imidazol-1-yl)-5-(trifluoromethyl)phenyl)benzamide], the melting point was in the range of 213 to 215 °C. For the same compound, the viability at 0.1 µM with K562 cells came to 18.3%.
Take `CN1CCN(Cc2ccc(NC(=O)c3ccc(Cl)c(C#Cc4ccc(NC5CC5)nn4)c3)cc2C(F)(F)F)CC1` [Compound 15, 4-Chloro-3-(2-(6-(cyclopropylamino)pyridazin-3-yl)ethynyl)-N-(4-((4-methylpiperazin-1-yl)methyl)-3-(trifluoromethyl)phenyl)benzamide]: the melting point fell in the range of 133 to 134 °C. Besides, the viability at 0.1 µM in the data set with K562 cells is 17%.
The compound `CN1CCN(Cc2ccc3nc(-c4ccc(Cl)c(C#Cc5ccc(NC6CCC6)nn5)c4)[nH]c3c2)CC1` [Compound 8, 6-(2-(2-Chloro-5-(6-((4-methylpiperazin-1-yl)methyl)-1H-benzo[d]imidazol-2-yl)phenyl)ethynyl)-N-cyclobutylpyridazin-3-amine] displayed a melting point of 161 to 163 °C.
In the case of `Cc1ccc(-c2nc3ccc(CN4CCN(C)CC4)cc3[nH]2)cc1C#Cc1ccc(NC(C)C)nn1` [Compound 4, N-Isopropyl-6-(2-(2-methyl-5-(6-((4-methylpiperazin-1-yl)methyl)-1H-benzo[d]imidazol-2-yl)phenyl)ethynyl)pyridazin-3-amine], the melting point lay within 129 to 130 °C.
As to `Cc1ccc(-c2nc3ccc(CN4CCN(C)CC4)cc3[nH]2)cc1C#Cc1ccc(NC2CC2)nn1` [Compound 2, N-Cyclopropyl-6-(2-(2-methyl-5-(6-((4-methylpiperazin-1-yl)methyl)-1H-benzo[d]imidazol-2-yl)phenyl)ethynyl)pyridazin-3-amine], the melting point lay in the range of 145 to 146 °C.
Compound `CN1CCN(Cc2ccc(NC(=O)N3CCCC(C#Cc4cnc5cccnn45)C3)cc2C(F)(F)F)CC1` (stereo not drawn) [Compound 34, 3-(2-(Imidazo[1,2-b]pyridazin-3-yl)ethynyl)piperidine-N-(4-((4-methylpiperazin-1-yl)methyl)-3-(trifluoromethyl)phenyl)-1-carboxamide] registered a melting point of 65 to 70 °C. For the same compound, the viability at 0.1 µM in the data set with K562 cells worked out at 12%.
The corresponding values for `CN1CCN(Cc2ccc3nc(-c4ccc(Cl)c(C#Cc5cnc6cccnn56)c4)[nH]c3c2)CC1` [Compound 6, 3-(2-(2-Chloro-5-(6-((4-methylpiperazin-1-yl)methyl)-1H-benzo[d]imidazol-2-yl)phenyl)ethynyl)imidazo[1,2-b]pyridazine] are 156 to 157 °C and 10.1%.
With `Cc1cn(-c2ccc(NC(=O)c3ccc(Cl)c(C#Cc4ccc(NC(C)C)nn4)c3)cc2C(F)(F)F)cn1` [Compound 22], the melting point fell in the range of 133 to 135 °C.
`Cc1cn(-c2ccc(NC(=O)c3ccc(Cl)c(C#Cc4ccc(NC5CCC5)nn4)c3)cc2C(F)(F)F)cn1` [Compound 21, 4-Chloro-3-(2-(6-(cyclobutylamino)pyridazin-3-yl)ethynyl)-N-(4-(4-methyl-1H-imidazol-1-yl)-3-(trifluoromethyl)phenyl)benzamide] gave a melting point of 153 to 155 °C.
